Results from BindingDB's records for doi:10.1080/14756360801945598 (Quaid-I-Azam University, 2009).

target: Urease (Canavalia ensiformis, UniProt P07374); assay: Inhibition Assay
Source text: In vitro inhibition assay using jack bean urease.

Urease, sequence (P07374 whole entry): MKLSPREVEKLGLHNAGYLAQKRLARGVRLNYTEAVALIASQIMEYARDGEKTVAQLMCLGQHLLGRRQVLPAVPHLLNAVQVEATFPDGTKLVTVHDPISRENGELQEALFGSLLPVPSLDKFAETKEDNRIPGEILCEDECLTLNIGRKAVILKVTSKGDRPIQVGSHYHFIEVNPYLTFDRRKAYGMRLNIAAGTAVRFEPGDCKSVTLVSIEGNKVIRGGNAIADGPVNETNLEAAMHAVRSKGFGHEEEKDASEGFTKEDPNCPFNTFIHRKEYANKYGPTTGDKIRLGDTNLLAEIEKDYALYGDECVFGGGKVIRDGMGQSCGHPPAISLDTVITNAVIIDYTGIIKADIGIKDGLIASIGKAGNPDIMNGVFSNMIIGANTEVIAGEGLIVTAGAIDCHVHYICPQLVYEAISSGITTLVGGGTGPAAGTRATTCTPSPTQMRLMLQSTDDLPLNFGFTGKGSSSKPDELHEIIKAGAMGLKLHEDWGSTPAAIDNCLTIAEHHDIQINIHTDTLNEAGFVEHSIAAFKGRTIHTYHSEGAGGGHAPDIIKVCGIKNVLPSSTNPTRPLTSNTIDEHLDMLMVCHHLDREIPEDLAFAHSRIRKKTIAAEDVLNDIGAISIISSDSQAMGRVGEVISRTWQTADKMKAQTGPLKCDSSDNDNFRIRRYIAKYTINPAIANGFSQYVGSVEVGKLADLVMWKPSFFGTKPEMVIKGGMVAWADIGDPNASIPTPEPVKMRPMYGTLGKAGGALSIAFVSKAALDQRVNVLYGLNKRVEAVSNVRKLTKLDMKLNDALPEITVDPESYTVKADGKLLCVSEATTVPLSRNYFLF

Row | Compound | IC50 [µM]
1 | O=COc1ccc(C2CC(c3ccccc3O)=Nc3ccccc3S2)cc1OC=O (stereo unspecified) [Dihydro-1,5-benzothiazepine analog, 4] | 19.1
2 | Oc1ccccc1C1CC(c2ccccc2)Sc2ccccc2N1 [2,3,4,5-Tetrahydro-1,5-benzothiazepine analog (2S,4R), 6] | 91.2
3 | O=[N+]([O-])c1ccc(C2CC(c3ccccc3)=Nc3ccccc3S2)cc1 (stereo unspecified) [Dihydro-1,5-benzothiazepine analog, 5] | 36.7
4 | Oc1ccccc1C1CC(c2ccc(F)cc2)Sc2ccccc2N1 [2,3,4,5-Tetrahydro-1,5-benzothiazepine analog (2S,4R), 7] | 93.7
5 | c1ccc(C2=Nc3ccccc3SC(c3ccccc3)C2)cc1 (stereo unspecified) [Dihydro-1,5-benzothiazepine analog, 2] | 26.3
6 | Cc1ccc(C2CC(c3ccccc3)=Nc3ccccc3S2)cc1 (stereo unspecified) [Dihydro-1,5-benzothiazepine analog, 3] | 24.6
